Legend:
Assay in all cases: kinase selectivity panel
Assay type in all cases: biochemical
[1] = target: T1, MAPKAP-K2 (Homo sapiens, UniProt P49137); settings: read-out: percentage of control activity (POC), MAPKAP-K2
T1 construct: purchased Eurofins Pharma Discovery Services (KinaseProfiler; Cerep BioPrint panel)
How it was run: (§1)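 First, 125 representative kinases were exposed to 10 μM compound in duplicate; next, selected activities were titrated over 9 concentrations in duplicate, and IC50 values were calculated.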

[2] = target: T2, Yes (Homo sapiens, UniProt P07947); settings: for remaining activity at 10 µM: read-out: percentage of control activity (POC), Yes
T2 construct: Eurofins Pharma Discovery Services (contract assay service)
T2 sequence (P07947 whole entry, species assumed): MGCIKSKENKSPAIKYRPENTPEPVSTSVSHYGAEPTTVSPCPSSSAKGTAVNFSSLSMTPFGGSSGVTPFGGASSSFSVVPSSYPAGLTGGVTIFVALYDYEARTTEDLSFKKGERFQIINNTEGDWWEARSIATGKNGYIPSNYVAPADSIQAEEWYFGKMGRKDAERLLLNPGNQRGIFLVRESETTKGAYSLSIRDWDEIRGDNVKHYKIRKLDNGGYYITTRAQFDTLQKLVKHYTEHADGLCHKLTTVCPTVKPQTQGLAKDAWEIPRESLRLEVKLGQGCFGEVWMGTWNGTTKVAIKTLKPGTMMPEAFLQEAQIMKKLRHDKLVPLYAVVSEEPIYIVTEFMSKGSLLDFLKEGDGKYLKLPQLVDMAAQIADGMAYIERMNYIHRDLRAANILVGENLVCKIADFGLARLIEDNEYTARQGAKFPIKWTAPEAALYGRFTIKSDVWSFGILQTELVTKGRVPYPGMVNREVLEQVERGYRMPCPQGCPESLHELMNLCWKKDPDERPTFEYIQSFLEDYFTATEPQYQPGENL
How it was run: as §1

[3] = target: T3, EGFR (Homo sapiens, UniProt P00533); settings: read-out: percentage of control activity (POC), EGFR
T3 construct: purchased Eurofins Pharma Discovery Services (KinaseProfiler; Cerep BioPrint panel)
T3 sequence (P00533 25-1210): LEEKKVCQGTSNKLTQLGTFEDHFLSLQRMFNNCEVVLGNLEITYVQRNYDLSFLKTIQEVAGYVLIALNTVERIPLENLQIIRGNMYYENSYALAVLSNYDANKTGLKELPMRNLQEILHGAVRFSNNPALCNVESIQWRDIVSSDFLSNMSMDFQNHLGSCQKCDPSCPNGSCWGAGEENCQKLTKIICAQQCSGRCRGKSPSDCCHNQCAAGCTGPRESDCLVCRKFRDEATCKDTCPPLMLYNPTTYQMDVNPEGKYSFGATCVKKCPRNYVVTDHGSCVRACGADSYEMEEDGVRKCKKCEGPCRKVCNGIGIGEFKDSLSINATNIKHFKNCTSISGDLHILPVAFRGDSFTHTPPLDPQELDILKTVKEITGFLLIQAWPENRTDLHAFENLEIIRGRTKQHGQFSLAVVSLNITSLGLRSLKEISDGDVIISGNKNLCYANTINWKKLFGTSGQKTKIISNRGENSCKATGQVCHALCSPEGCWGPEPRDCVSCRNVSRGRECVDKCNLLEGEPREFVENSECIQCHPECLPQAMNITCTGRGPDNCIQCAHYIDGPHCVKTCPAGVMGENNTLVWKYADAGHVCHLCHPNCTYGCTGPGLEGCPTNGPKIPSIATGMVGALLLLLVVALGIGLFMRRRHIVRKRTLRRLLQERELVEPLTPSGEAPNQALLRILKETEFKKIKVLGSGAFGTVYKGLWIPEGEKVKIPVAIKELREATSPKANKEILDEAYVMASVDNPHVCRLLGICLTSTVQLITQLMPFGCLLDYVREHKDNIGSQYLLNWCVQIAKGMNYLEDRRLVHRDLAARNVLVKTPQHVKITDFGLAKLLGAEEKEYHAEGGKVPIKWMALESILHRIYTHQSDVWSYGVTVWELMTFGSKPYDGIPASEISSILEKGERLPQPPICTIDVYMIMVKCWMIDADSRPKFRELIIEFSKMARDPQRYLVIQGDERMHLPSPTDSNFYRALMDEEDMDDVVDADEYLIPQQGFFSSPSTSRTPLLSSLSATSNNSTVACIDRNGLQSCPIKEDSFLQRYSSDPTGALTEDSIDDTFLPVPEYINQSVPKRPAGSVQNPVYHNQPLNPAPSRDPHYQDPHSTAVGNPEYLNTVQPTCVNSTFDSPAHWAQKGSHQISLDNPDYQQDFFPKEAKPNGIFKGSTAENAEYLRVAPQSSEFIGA
How it was run: as §1

[4] = target: T4, PKCε (Homo sapiens, UniProt Q02156); settings: read-out: percentage of control activity (POC), PKCε
T4 construct: purchased Eurofins Pharma Discovery Services (KinaseProfiler; Cerep BioPrint panel)
T4 sequence (Q02156 1-737): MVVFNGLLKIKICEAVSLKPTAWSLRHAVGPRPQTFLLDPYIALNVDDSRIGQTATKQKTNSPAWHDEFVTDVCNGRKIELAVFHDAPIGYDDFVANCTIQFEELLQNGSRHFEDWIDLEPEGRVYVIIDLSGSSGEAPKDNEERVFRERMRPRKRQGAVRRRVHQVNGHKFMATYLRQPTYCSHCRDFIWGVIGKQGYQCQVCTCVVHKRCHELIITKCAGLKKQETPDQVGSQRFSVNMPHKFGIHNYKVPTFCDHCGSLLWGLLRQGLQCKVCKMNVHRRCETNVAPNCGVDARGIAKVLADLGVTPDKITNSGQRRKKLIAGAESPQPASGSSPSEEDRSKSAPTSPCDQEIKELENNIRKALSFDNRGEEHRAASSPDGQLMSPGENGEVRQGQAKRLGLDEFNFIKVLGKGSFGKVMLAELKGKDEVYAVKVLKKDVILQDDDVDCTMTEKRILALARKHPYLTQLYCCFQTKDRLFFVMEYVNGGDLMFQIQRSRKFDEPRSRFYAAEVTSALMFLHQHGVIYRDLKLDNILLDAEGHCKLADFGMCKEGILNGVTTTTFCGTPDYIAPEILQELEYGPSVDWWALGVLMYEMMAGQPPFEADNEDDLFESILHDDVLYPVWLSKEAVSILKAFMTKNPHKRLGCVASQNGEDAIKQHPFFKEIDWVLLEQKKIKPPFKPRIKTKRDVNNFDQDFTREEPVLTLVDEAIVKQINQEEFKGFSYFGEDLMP
How it was run: as §1

[5] = target: T5, TrkB (Homo sapiens, UniProt Q16620); settings: for remaining activity at 10 µM: read-out: percentage of control activity (POC), TrkB
T5 construct: purchased Eurofins Pharma Discovery Services (KinaseProfiler; Cerep BioPrint panel)
T5 sequence (Q16620 32-822): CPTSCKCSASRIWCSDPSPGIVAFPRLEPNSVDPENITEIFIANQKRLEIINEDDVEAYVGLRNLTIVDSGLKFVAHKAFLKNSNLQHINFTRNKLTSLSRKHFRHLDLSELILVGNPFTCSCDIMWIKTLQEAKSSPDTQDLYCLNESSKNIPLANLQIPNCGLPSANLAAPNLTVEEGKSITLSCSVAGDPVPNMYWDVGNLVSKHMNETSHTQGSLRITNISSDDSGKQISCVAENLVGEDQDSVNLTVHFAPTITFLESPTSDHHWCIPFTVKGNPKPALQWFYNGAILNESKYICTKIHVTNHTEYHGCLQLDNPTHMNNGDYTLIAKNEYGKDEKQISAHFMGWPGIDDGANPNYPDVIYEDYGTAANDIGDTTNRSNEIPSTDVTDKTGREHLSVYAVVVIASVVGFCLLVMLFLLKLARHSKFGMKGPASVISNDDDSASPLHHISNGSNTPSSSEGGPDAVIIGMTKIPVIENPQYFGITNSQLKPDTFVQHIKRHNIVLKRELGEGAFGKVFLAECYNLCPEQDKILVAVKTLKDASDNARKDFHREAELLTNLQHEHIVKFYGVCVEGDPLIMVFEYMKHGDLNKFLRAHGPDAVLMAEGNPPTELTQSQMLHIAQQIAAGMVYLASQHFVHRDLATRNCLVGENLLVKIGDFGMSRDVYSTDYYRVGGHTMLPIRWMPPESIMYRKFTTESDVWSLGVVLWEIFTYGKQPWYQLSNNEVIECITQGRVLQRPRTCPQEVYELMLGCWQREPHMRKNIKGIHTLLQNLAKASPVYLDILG
How it was run: as §1

[6] = target: T6, CaMKIIγ (Homo sapiens, UniProt Q13555); settings: read-out: percentage of control activity (POC), CaMKIIγ
T6 construct: purchased Eurofins Pharma Discovery Services (KinaseProfiler; Cerep BioPrint panel)
T6 sequence (Q13555 whole entry): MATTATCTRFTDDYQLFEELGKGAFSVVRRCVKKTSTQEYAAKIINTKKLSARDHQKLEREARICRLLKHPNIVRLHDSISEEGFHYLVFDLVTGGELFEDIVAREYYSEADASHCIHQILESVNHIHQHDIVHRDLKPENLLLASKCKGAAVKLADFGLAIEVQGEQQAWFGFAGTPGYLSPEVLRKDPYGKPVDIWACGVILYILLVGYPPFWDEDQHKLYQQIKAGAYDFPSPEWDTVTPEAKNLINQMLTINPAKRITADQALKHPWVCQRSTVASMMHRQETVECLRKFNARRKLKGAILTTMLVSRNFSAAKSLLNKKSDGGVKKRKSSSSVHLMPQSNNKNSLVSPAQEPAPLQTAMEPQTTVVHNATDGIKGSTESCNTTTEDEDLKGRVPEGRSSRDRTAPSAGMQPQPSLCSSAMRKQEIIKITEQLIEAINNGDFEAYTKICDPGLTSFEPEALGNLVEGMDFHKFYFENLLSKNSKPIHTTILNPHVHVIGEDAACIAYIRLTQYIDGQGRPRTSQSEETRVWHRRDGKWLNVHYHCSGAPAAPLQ
How it was run: as §1

[7] = target: T7, PRAK (Homo sapiens, UniProt Q8IW41); settings: read-out: percentage of control activity (POC), PRAK
T7 construct: purchased Eurofins Pharma Discovery Services (KinaseProfiler; Cerep BioPrint panel)
T7 sequence (Q8IW41 1-473): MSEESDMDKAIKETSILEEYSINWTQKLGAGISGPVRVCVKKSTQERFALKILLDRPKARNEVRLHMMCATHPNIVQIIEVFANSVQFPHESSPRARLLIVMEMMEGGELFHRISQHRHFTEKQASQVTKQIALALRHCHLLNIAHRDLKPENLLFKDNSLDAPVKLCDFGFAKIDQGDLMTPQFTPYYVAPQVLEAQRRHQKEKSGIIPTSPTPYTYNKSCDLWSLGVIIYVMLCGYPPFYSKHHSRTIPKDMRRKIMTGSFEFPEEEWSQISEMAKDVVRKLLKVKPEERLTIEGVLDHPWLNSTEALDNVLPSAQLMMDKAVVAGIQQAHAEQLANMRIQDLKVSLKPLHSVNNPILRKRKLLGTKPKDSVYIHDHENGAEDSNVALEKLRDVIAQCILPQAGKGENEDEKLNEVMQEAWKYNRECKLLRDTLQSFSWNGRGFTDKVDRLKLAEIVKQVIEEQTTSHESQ
How it was run: as §1

[8] = target: T8, Mer (Homo sapiens, UniProt Q12866); settings: read-out: percentage of control activity (POC), Mer
T8 construct: purchased Eurofins Pharma Discovery Services (KinaseProfiler; Cerep BioPrint panel)
T8 sequence (Q12866 21-999): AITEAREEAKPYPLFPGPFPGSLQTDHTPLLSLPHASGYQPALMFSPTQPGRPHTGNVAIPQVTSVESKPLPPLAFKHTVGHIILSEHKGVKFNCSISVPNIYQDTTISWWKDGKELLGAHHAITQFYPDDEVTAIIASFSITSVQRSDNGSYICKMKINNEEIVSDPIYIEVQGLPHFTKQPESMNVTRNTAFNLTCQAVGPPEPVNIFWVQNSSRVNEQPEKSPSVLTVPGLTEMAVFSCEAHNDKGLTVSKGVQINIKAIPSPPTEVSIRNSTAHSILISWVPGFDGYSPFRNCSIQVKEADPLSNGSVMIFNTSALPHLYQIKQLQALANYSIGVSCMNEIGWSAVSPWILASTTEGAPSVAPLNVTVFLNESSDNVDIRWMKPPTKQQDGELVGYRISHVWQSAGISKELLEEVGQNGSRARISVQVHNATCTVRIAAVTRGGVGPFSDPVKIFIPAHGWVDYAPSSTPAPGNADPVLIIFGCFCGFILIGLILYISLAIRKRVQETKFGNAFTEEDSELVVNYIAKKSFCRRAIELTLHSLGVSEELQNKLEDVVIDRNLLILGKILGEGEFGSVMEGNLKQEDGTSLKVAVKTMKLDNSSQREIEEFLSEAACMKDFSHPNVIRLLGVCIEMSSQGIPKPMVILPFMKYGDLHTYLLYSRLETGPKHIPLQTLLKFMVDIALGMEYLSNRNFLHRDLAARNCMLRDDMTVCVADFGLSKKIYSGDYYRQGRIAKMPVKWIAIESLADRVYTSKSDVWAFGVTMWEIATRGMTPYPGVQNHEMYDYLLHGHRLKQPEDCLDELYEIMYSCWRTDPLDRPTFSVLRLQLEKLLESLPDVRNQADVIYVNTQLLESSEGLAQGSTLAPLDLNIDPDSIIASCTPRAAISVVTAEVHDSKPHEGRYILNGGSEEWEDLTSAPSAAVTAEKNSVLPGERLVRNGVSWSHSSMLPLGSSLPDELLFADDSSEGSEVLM
How it was run: as §1

[9] = target: T9, Rsk2 (Homo sapiens, UniProt P51812); settings: read-out: percentage of control activity (POC), Rsk2
T9 construct: purchased Eurofins Pharma Discovery Services (KinaseProfiler; Cerep BioPrint panel)
T9 sequence (P51812 whole entry): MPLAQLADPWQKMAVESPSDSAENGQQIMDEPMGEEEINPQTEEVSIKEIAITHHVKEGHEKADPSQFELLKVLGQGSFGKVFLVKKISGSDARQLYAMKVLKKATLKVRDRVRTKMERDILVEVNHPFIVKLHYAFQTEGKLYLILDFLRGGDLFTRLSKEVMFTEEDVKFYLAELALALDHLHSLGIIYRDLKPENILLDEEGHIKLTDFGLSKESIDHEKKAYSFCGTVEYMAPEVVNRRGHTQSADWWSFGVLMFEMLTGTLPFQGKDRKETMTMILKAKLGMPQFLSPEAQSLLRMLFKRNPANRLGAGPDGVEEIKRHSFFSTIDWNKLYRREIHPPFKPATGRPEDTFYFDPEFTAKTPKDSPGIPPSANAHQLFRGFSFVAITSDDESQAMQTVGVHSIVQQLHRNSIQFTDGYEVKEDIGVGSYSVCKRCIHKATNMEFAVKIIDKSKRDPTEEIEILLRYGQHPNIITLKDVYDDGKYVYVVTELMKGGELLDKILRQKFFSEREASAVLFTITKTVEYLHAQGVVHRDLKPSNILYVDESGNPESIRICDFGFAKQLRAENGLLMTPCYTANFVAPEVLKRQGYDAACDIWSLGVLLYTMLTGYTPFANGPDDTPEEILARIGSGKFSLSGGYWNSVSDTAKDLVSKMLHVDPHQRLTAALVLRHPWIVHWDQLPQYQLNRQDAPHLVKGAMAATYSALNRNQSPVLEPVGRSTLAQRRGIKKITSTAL
How it was run: as §1

[10] = target: T10, PKCγ (Homo sapiens, UniProt P05129); settings: read-out: percentage of control activity (POC), PKCγ
T10 construct: purchased Eurofins Pharma Discovery Services (KinaseProfiler; Cerep BioPrint panel)
How it was run: as §1

T1 sequence (P49137 whole entry): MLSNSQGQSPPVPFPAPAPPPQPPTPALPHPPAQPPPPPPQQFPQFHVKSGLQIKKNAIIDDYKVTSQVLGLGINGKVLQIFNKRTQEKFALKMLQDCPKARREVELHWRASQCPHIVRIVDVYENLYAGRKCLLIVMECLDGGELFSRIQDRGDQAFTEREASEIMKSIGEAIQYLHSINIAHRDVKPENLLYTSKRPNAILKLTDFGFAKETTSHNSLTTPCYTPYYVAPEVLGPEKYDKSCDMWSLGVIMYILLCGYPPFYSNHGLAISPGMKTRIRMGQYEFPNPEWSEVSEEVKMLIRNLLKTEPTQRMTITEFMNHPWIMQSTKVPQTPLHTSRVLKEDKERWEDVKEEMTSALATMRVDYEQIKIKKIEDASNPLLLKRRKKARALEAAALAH

Row | Compound | remaining activity at 10 µM [1] [%] | remaining activity at 10 µM ([2]; 10 μM) [%] | remaining activity at 10 µM [3] [%] | remaining activity at 10 µM [4] [%] | inhibition at 10 µM [5] [%] | remaining activity at 10 µM [5] [%] | remaining activity at 10 µM [6] [%] | remaining activity at 10 µM [7] [%] | remaining activity at 10 µM [8] [%] | remaining activity at 10 µM [9] [%] | remaining activity at 10 µM [10] [%] | inhibition at 10 µM ([2]; 10 μM) [%] | IC50 ([2]; biochemical dose response, duplicate, read-out: Inhibition of indicated activity (IC50, μM): Yes) [µM]
1 | CC(C)(C)N1CCC(c2cc(-c3ccc(F)cc3Cl)c3cc[n+]([O-])c(-c4c(Cl)cccc4Cl)c3n2)CC1 [compound 2] | 108 | 107 | 96 | 94 | 75 | 25 | 91 | 107 | 95 | 101 | 117 |  | 
2 | Cc1ccc(C(=O)NCC2CC2)cc1-c1ccc2c(c1)NC(=O)C21CCCC1 [compound 3] | 106 | 100 | 91 | 102 |  | 96 | 103 | 65 | 96 | 103 | 104 |  | 
3 | Cn1cc(-c2cccc(-c3nc(C(=O)NC4C5CC6CC4CC(O)(C6)C5)c(N)nc3N)c2)cn1 (centres unmarked) [compound 4] | 107 | 23 | 95 | 87 |  | 57 | 83 | 83 | 74 | 88 | 96 | 77 | 2.39
4 | CS(=O)(=O)N1CCN(c2ccc(Nc3ncc(C(N)=O)c(NC4CC4)n3)cc2)CC1 [compound 5] | 85 | 4 | 87 | 54 |  | 3 | 24 | 85 | 1 | -2 | 4 |  | 
5 | COc1c(NC(=O)c2ccc(C)c(-c3nnc4c(NCC(C)(C)C)nccn34)c2)cc(C(C)(C)C)cc1NS(C)(=O)=O [compound 7, reference compound] | 110 | 99 | 104 | 100 |  | 84 | 102 | 56 | 100 | 112 | 105 |  | 

— publication PMC5761851, “Application of a phenotypic drug discovery strategy to identify biological and chemical starting points for inhibition of TSLP production in lung epithelial cells” (PLoS ONE, 2018)
